# Data as given in US10472395B2, “Cyclic peptide analogs and conjugates thereof” (Sirenas LLC, priority 2015, dated 2019).
# Read-outs that look alike come from different tables or passages of the source. Numbered stars: 1 amine (or outer) side, 2 acyl side, 3 side chain; on linkers, the order of the positions; unused ones are H or OH. Bridge positions count the residues as written; N and C are the ends. Square brackets hold non-standard residues; d marks the D form. Peptide text beside a SMILES is read from it. ξ: configuration not given here. X6 = C/C=C(\C)[C@@H](O[*:2])[C@@H](C)[C@H](C/C=C(\C)C(=O)[*:1])OCSC; X2 = C/C(=C\CCC[C@@H](O[*:2])C(C)C)C(=O)[*:1]; X7 = C/C(=C\CCC[C@H](O[*:2])C(C)C)C(=O)[*:1]; X1 = C/C(=C\CC[C@@H](C)CO[*:2])C(=O)[*:1]; aIle = CC[C@@H](C)[C@H](N)C(=O)O; dNMeF = CN[C@H](Cc1ccccc1)C(=O)O; Ile(3ξ) = CCC(C)[C@H](N)C(=O)O; dHica = CC(C)C[C@@H](O)C(=O)O; Sar = CNCC(=O)O
# Tests used:
# HCC1954 cells = test: Inhibitory response of test compounds against HCC1954 cells (method analogous to BT-474); format: cell-based
# Experimental: (§1) BT-474 human mammary gland ductal carcinoma cells were seeded in a clear polystyrene 96-well microculture plate (Corning® Costar® 96-well flat bottom plate, Cat.#3997) in a total volume of 90 μL/well. After 24 hours of incubation in a humidified incubator at 37° C. with 5% CO2 and 95% air, 10 μL of 10×, serially diluted test agents in growth medium were added to each well (10 pt dose response curve, highest concentration 10 μM of test agent). After 72 hours of culture in a humidified incubator at 37° C., in an atmosphere of 5% CO2 and 95% air, the plated cells and Cell Titer-Glo® (Promega G7571) reagents were brought to room temperature to equilibrate for 30 minutes. 100 μL of Cell Titer-Glo® reagent was added to each well. The plate was shaken for two minutes and then left to equilibrate for ten minutes. The media/Cell Titer-Glo® reagent was transferred to a white polystyrene 96-well microculture plate (Corning® Costar® 96-well flat bottom plate, Cat.#3917) before reading luminescence on a Tecan GENios microplate reader.
# (§2) Percent inhibition of cell growth was calculated relative to untreated control wells. The IC50 value for the test agents was determined using Prism 6.05 by curve-fitting of the data using the following four parameter-logistic equation:
# (§3) [formula] where Top is the maximal % of control absorbance, Bottom is the minimal % of control absorbance at the highest agent concentration, Y is the % of control absorbance, X is the agent concentration, IC50 is the concentration of agent that inhibits cell growth by 50% compared to the control cells, and n is the slope of the curve.
# Inhibitory response of test compounds against HCC1954 cells was determined using a method analogous to that used for BT-474 cells.
# [1] = tested on: BT-474 human mammary gland ductal carcinoma cells; test: Inhibitory response of test compounds against BT-474 cells (Cell Titer-Glo, 72 h); format: cell-based
# Experimental: as §1, §2, §3
Compound,IC50 (HCC1954 cells; Homo sapiens),IC50 ([1]; Homo sapiens),IC50 (HCC1954 cells),IC50 [1]
C/C=C(\C)[C@H]1OC(=O)[C@@H](C)NC(=O)[C@H]([C@H](C)CC)NC(=O)CN(C)C(=O)[C@@H](Cc2ccccc2)N(C)C(=O)[C@H](C)NC(=O)[C@@H](CC(C)C)OC(=O)/C(C)=C/C[C@H](CC(=O)N(C)CCN(C)C(=O)c2ccc(C=O)cc2)[C@@H]1C [Compound 110],20 to 200 nM,< 20 nM,,
CCC(C)[C@@H]1NC(=O)CN(C)C(=O)[C@@H](Cc2ccccc2)N(C)C(=O)[C@H](C)NC(=O)[C@@H](CC(C)C)OC(=O)/C(C)=C/CCC[C@@H](C(C)C)OC(=O)[C@@H](C)NC1=O (some centres unmarked) [Compound 86] ([dHica]A[dNMeF][Sar][Ile(3ξ)][dA]; linker N-C via X7),200 to 10000 nM,200 to 10000 nM,,
C/C=C(\C)[C@H]1OC(=O)[C@@H](CCCCN)NC(=O)[C@H](C(C)CC)NC(=O)CN(C)C(=O)[C@@H](Cc2ccccc2)N(C)C(=O)[C@H](C)NC(=O)[C@@H](CC(C)C)OC(=O)/C(C)=C/C[C@H](O)[C@@H]1C (some centres unmarked) [Compound 84],200 to 10000 nM,200 to 10000 nM,,
C/C=C(\C)[C@H]1OC(=O)[C@@H](C)NC(=O)[C@H](C(C)CC)NC(=O)CN(C)C(=O)[C@@H](Cc2ccccc2)N(C)C(=O)[C@H](C)NC(=O)[C@@H](CC(C)C)OC(=O)/C(C)=C/C[C@H](CC(=O)NCCOCCOCCOCCO)[C@@H]1C (some centres unmarked) [Compound 122],20 to 200 nM,< 20 nM,,
C/C=C(\C)[C@H]1OC(=O)[C@@H](CCCCN)NC(=O)[C@H]([C@H](C)CC)NC(=O)CN(C)C(=O)[C@@H](Cc2ccccc2)N(C)C(=O)[C@H](C)NC(=O)[C@@H](CC(C)C)NC(=O)/C(C)=C/C[C@H](OCSC)[C@@H]1C [Compound 83] ([dL]A[dNMeF][Sar][aIle][dK]; linker N-C via X6),> 10000 nM,> 10000 nM,,
C/C=C(\C)[C@H]1OC(=O)[C@@H](C)NC(=O)[C@H](C(C)CC)NC(=O)CN(C)C(=O)[C@@H](Cc2ccccc2)N(C)C(=O)[C@H](C)NC(=O)[C@@H](CC(C)C)OC(=O)/C(C)=C/C=C/[C@@H]1C (some centres unmarked) [Compound 69],< 20 nM,< 20 nM,,
C/C=C(\C)[C@H]1OC(=O)[C@@H](C)NC(=O)[C@H](C(C)CC)NC(=O)CN(C)C(=O)[C@@H](Cc2ccccc2)N(C)C(=O)[C@H](C)NC(=O)[C@@H](CC(C)C)OC(=O)/C(C)=C/C[C@H](CC(=O)NCCCCCCN)[C@@H]1C (some centres unmarked) [Compound 107],20 to 200 nM,< 20 nM,,
C/C=C(\C)[C@H]1OC(=O)[C@@H](C)NC(=O)[C@H]([C@H](C)CC)NC(=O)CN(C)C(=O)[C@@H](Cc2ccccc2)N(C)C(=O)[C@H](C)NC(=O)[C@@H](CC(C)C)OC(=O)/C(C)=C/C[C@H](OC(=O)NCCCOCCOCCOCCCN=[N+]=N)[C@@H]1C [Compound 113],< 20 nM,< 20 nM,,
C/C=C(\C)[C@H]1OC(=O)[C@@H](C)NC(=O)[C@H](C(C)CC)NC(=O)CN(C)C(=O)[C@@H](Cc2ccccc2)N(C)C(=O)[C@H](C)NC(=O)[C@@H](CC(C)C)OC(=O)/C(C)=C/C[C@H](OC(=O)N(C)CCN(C)C(=O)OC(C)(C)C)[C@@H]1C (some centres unmarked) [Compound 93],< 20 nM,< 20 nM,,
C/C=C(\C)[C@H]1OC(=O)[C@@H](C)NC(=O)[C@H](C(C)CC)NC(=O)CN(C)C(=O)[C@@H](Cc2ccccc2)N(C)C(=O)[C@H](C)NC(=O)[C@@H](CC(C)C)OC(=O)/C(C)=C/C[C@H](OC(=O)NCCCOCCOCCOCCCN)[C@@H]1C (some centres unmarked) [Compound 108],200 to 10000 nM,20 to 200 nM,,
CCC(C)[C@@H]1NC(=O)CN(C)C(=O)[C@@H](Cc2ccccc2)N(C)C(=O)[C@H](C)NC(=O)[C@@H](CC(C)C)OC(=O)/C(C)=C/CC[C@@H](C)COC(=O)[C@@H](C)NC1=O (some centres unmarked) [Compound 92] ([dHica]A[dNMeF][Sar][Ile(3ξ)][dA]; linker N-C via X1),200 to 10000 nM,200 to 10000 nM,,
C/C=C(\C)[C@H]1OC(=O)[C@@H](C)NC(=O)[C@H]([C@H](C)CC)NC(=O)CN(C)C(=O)[C@@H](Cc2ccc(OCc3ccccc3)cc2)N(C)C(=O)[C@H](C)NC(=O)[C@@H](CC(C)C)OC(=O)/C(C)=C/C=C/[C@@H]1C [Compound 98],< 20 nM,< 20 nM,,
CCC(C)[C@@H]1NC(=O)CN(C)C(=O)[C@@H](Cc2ccccc2)N(C)C(=O)[C@H](C)NC(=O)[C@@H](CC(C)C)OC(=O)/C(C)=C/CCC[C@H](C(C)C)OC(=O)[C@@H](C)NC1=O (some centres unmarked) [Compound 87] ([dHica]A[dNMeF][Sar][Ile(3ξ)][dA]; linker N-C via X2),200 to 10000 nM,200 to 10000 nM,,
C/C=C(\C)[C@H]1OC(=O)[C@@H](C)NC(=O)[C@H](C(C)CC)NC(=O)CN(C)C(=O)[C@@H](Cc2ccccc2)N(C)C(=O)[C@H](C)NC(=O)[C@@H](CC(C)C)OC(=O)/C(C)=C/C[C@H](OC(=O)NCCCOCCOCCOCCCNC(=O)CCSSc2ccccn2)[C@@H]1C (some centres unmarked) [Compound L12],,,> 10000 nM,200 to 10000 nM
C/C=C(\C)[C@H]1OC(=O)[C@@H](CCCCNC(=O)OC(C)(C)C)NC(=O)[C@H]([C@H](C)CC)NC(=O)CN(C)C(=O)[C@@H](Cc2ccccc2)N(C)C(=O)[C@H](C)NC(=O)[C@@H](CC(C)C)OC(=O)/C(C)=C/C[C@H](CCSC)[C@@H]1C [Compound 82],20 to 200 nM,< 20 nM,,
C/C=C(\C)[C@H]1OC(=O)[C@@H](C)NC(=O)[C@H](C(C)CC)NC(=O)CN(C)C(=O)[C@@H](Cc2ccccc2)N(C)C(=O)[C@H](C)NC(=O)[C@@H](CC(C)C)OC(=O)/C(C)=C/C[C@H](OC(=O)NCCO)[C@@H]1C (some centres unmarked) [Compound 123],< 20 nM,< 20 nM,,
C/C=C(\C)[C@H]1OC(=O)[C@@H](C)NC(=O)[C@H]([C@H](C)CC)NC(=O)CN(C)C(=O)[C@@H](Cc2ccccc2)N(C)C(=O)[C@H](C)NC(=O)[C@@H](CC(C)C)OC(=O)/C(C)=C/C[C@H](OC(=O)N(C)CCN(C)C=O)[C@@H]1C [Compound 114],20 to 200 nM,< 20 nM,,
C/C=C(\C)[C@H]1OC(=O)[C@@H](C)NC(=O)[C@H]([C@H](C)CC)NC(=O)CN(C)C(=O)[C@@H](Cc2ccccc2)N(C)C(=O)[C@H](C)NC(=O)[C@@H](CC(C)C)OC(=O)/C(C)=C/C[C@H](OC(=O)NCCCOCCOCCOCCCNC(=O)OC(C)(C)C)[C@@H]1C [Compound 106],< 20 nM,< 20 nM,,
C/C=C(\C)[C@H]1OC(=O)[C@@H](C)NC(=O)[C@H]([C@H](C)CC)NC(=O)CN(C)C(=O)[C@@H](Cc2ccccc2)N(C)C(=O)[C@H](C)NC(=O)[C@@H](CC(C)C)OC(=O)/C(C)=C/C[C@H](OC(=O)N(C)CCN(C)C(=O)OCC[Si](C)(C)C)[C@@H]1C [Compound 117],20 to 200 nM,20 to 200 nM,,
C/C=C(\C)[C@H]1OC(=O)[C@@H](C)NC(=O)[C@H](C(C)CC)NC(=O)CN(C)C(=O)[C@@H](Cc2ccc(O)cc2)N(C)C(=O)[C@H](C)NC(=O)[C@@H](CC(C)C)OC(=O)/C(C)=C/C=C/[C@@H]1C (some centres unmarked) [Compound 99],200 to 10000 nM,20 to 200 nM,,
C/C=C(\C)[C@H]1OC(=O)[C@@H](C)NC(=O)[C@H](C(C)CC)NC(=O)CN(C)C(=O)[C@@H](Cc2ccccc2)N(C)C(=O)[C@H](C)NC(=O)[C@@H](CC(C)C)OC(=O)/C(C)=C/CC[C@@H]1C (some centres unmarked) [Compound 90],< 20 nM,< 20 nM,,
C/C=C(\C)[C@H]1OC(=O)[C@@H](C)NC(=O)[C@H](C(C)CC)NC(=O)CN(C)C(=O)[C@@H](Cc2ccc(Cl)cc2)N(C)C(=O)[C@H](C)NC(=O)[C@@H](CC(C)C)OC(=O)/C(C)=C/C[C@H](O)[C@@H]1C (some centres unmarked) [Compound 21],< 20 nM,< 20 nM,,
C/C=C(\C)[C@H]1OC(=O)[C@@H](C)NC(=O)[C@H]([C@H](C)CC)NC(=O)CN(C)C(=O)[C@@H](Cc2ccc(Cl)cc2)N(C)C(=O)[C@H](CCCCN)NC(=O)[C@@H](CC(C)C)OC(=O)/C(C)=C/CC[C@@H]1C [Compound 118],200 to 10000 nM,200 to 10000 nM,,
C/C=C(\C)[C@H]1OC(=O)[C@@H](C)NC(=O)[C@H](C(C)CC)NC(=O)CN(C)C(=O)[C@@H](Cc2c[nH]c3ccccc23)N(C)C(=O)[C@H](C)NC(=O)[C@@H](CC(C)C)OC(=O)/C(C)=C/C[C@H](O)[C@@H]1C (some centres unmarked) [Compound 125],20 to 200 nM,< 20 nM,,
C/C=C(\C)[C@H]1OC(=O)[C@@H](C)NC(=O)[C@H](C(C)CC)NC(=O)CN(C)C(=O)[C@@H](Cc2ccc(O)cc2)N(C)C(=O)[C@H](C)NC(=O)[C@@H](CC(C)C)OC(=O)/C(C)=C/CC[C@@H]1C (some centres unmarked) [Compound 102],20 to 200 nM,< 20 nM,,
